Read-outs that look alike come from different tables or passages of the source. Ends that are not written are not given here. Where only a bound is given, the exact number is not on record here.

For data set [1], the system named is VRSA 52 biofilm. It counts as cell-based, S. aureus. As to conditions: 4 µM, 48 h, crystal violet, OD595. Here is the method:
(§1) The mixture was incubated in a 96‐well plate for 48 h. Subsequent steps, including washing, fixation, staining, and OD measurement, were performed as described in the biofilm eradication assay.

The test system of data set [2] is E. coli ATCC25922. As to the kind of experiment: Live/dead bacteria staining (PI/SYTO9, CLSM). The format is cell-based. As to conditions: 4 µM, 1 h.
Data set [3] has as its system 29 bacterial strains (11 Gram‐positive, 18 Gram‐negative). Kind of data set: GM of the MICs across the 29 bacterial strains. It counts as cell-based. As to conditions: MIC values exceeding 100 µg mL^−1 defaulted to 100 µg mL^−1. As for the experimental part:
(§2) The 2 fold broth microdilution method was performed following previously established protocols.^[ [65], [66] ^] A total of 29 strains of human pathogenic microorganisms (11 Gram‐positive and 18 Gram‐negative) were included in the assay. Standard strains were maintained in our laboratory, and clinical isolates were obtained from the Fourth Affiliated Hospital of Soochow University. […] Gradient dilutions of the drugs (vancomycin, AMPs, and vancomycin‐AMP conjugates) were prepared in 96‐well plates, with 50 µL of each drug solution added per well. For the vancomycin and AMP mixture, 25 µL of vancomycin was combined with 25 µL of AMP at the corresponding monomer gradient concentration, resulting in a total volume of 50 µL. […] Following incubation, bacterial growth was assessed by measuring absorbance at 600 nm. The MIC was defined as the lowest concentration at which no bacterial growth was detected.

Data set [4] has as its system MDR K. pneumoniae 2. The following applies: MH broth, 37 °C, 18 h, OD600.
The test system of data set [5] is human erythrocytes. As to the kind of experiment: Hemolytic activity assay. It counts as cell-based. The following applies: 32 µM; human blood cells, 37 °C, 30 min, A540, 1% Triton X‐100 positive control.
For data set [6], the system named is E. coli ATCC25922 biofilm. The format is cell-based. As to conditions: 4 µM, 48 h, crystal violet, OD595. As for the experimental part:
as §1

Data set [7] relates to MDR P. aeruginosa 5 biofilm. The format is cell-based. The following applies: 4 µM, 48 h, crystal violet, OD595. As for the experimental part: as §1
The subject of data set [8] is P. aeruginosa 60357. As to the kind of experiment: MIC, 2 fold broth microdilution. The format is cell-based. The following applies: MH broth, 37 °C, 18 h, OD600. Here is the method:
as §2
A general note: Broth dilution looks for growth in wells or tubes with falling amounts of substance.

The test system of data set [9] is S. flexneri CMCC51571. Kind of data set: MIC, 2 fold broth microdilution. The following applies: MH broth, 37 °C, 18 h, OD600. The format is cell-based. As for the experimental part: as §2
For data set [10], the system named is S. typhimurium CICC21483. Kind of data set: MIC, 2 fold broth microdilution. The format is cell-based. The following applies: MH broth, 37 °C, 18 h, OD600. As for the experimental part: as §2
Data set [11] relates to P. aeruginosa 52097. As to the kind of experiment: MIC, 2 fold broth microdilution. It counts as cell-based. The following applies: MH broth, 37 °C, 18 h, OD600. Here is the method:
as §2

Data set [12] has as its system B. cereus CMCC63301. Kind of data set: MIC, 2 fold broth microdilution. The format is cell-based. The following applies: MH broth, 37 °C, 18 h, OD600. As for the experimental part: as §2
Data set [13] relates to V. parahemolyticus ATCC17802. As to the kind of experiment: MIC, 2 fold broth microdilution. The format is cell-based. As to conditions: MH broth, 37 °C, 18 h, OD600. As for the experimental part:
as §2

Data set [14] deals with P. aeruginosa CMCC10104. As to the kind of experiment: MIC, 2 fold broth microdilution. The format is cell-based. As to conditions: MH broth, 37 °C, 18 h, OD600. As for the experimental part: as §2
Data set [15] deals with S. flexneri ATCC12022. Kind of data set: MIC, 2 fold broth microdilution. The format is cell-based. The following applies: MH broth, 37 °C, 18 h, OD600. Here is the method:
as §2

In data set [16] the test system is E. coli CMCC44102.
For data set [17], the system named is MDR A. baumannii 1. As to conditions: MH broth, 37 °C, 18 h, OD600.
For data set [18], the system named is VRSA 52 biofilms. As to conditions: 8 µM, 4 h, SYTO9/PI CLSM.
The test system of data set [19] is MDR K. pneumoniae 4. The following applies: MH broth, 37 °C, 18 h, OD600.
Data set [20] concerns S. aureus CMCC26003 biofilm. As to the kind of experiment: Biofilm inhibition, crystal violet. It counts as cell-based. As to conditions: 4 µM, 48 h, OD595. As for the experimental part: as §1
For data set [21], the system named is E. coli ATCC25922 biofilms. As to conditions: 8 µM, 4 h, SYTO9/PI CLSM.
In data set [22] the test system is MDR K. pneumoniae 3. The following applies: MH broth, 37 °C, 18 h, OD600.
Data set [23] relates to E. faecalis 2.
In data set [24] the test system is MDR P. aeruginosa 5.
For data set [25], the system named is C. perfringens ATCC13124. The following applies: MH broth, 37 °C, 18 h, OD600.
The subject of data set [26] is E. coli ATCC25922. Kind of data set: Antimicrobial resistance development assay. The format is cell-based. As to conditions: E. coli ATCC25922 cultured at sub‐MIC.
Data set [27] relates to VRSA 11. As to conditions: 11, 18 h.
Data set [28] deals with S. aureus ATCC29213. The following applies: ATCC29213, 18 h.
For data set [29], the system named is E. faecalis ATCC29212. As to conditions: ATCC29212, 18 h.
Data set [30] has as its system K. pneumoniae 9883. The following applies: 9883, 18 h.
Data set [31] relates to S. aureus CMCC26003. The following applies: CMCC26003, 18 h.
Data set [32] relates to A. baumannii ATCC19606. As to conditions: ATCC19606, 18 h.
The test system of data set [33] is S. aureus 15772. The following applies: 15772, 18 h.
For data set [34], the system named is E. coli ATCC25922. As to conditions: ATCC25922, 18 h.
Data set [35] has as its system VRSA 52. As to conditions: VRSA 52; MH broth, 37 °C, 18 h, OD600.
For data set [36], the system named is S. aureus 15192. As to conditions: 15192, 18 h.
Data set [37] has as its system MRSA ATCC43300. The following applies: ATCC43300, 18 h.
Data set [38] has as its system 13 bacterial strains. As to the kind of experiment: GM of MIC from tested bacterial strains (Table S2). It counts as cell-based. The following applies: 13 strains of Table S2. As for the experimental part: as §2
Data set [39] has as its system S. typhimurium ATCC14028. The following applies: ATCC14028, 18 h.
Data set [40] concerns P. aeruginosa ATCC27853. As to conditions: ATCC27853, 18 h.

Regarding `CC[C@H](C)[C@H](NC(=O)CNC(=O)[C@@H](N)CSC1CC(=O)N(CC2CCC(C(=O)N(C)[C@H](CC(C)C)C(=O)N[C@H]3C(=O)N[C@@H](CC(N)=O)C(=O)N[C@H]4C(=O)N[C@H]5C(=O)N[C@H](C(=O)N[C@H](C(=O)O)c6cc(O)cc(O)c6-c6cc5ccc6O)[C@H](O)c5ccc(c(Cl)c5)Oc5cc4cc(c5O[C@@H]4O[C@H](CO)[C@@H](O)[C@H](O)[C@H]4O[C@H]4C[C@](C)(N)[C@H](O)[C@H](C)O4)Oc4ccc(cc4Cl)[C@H]3O)CC2)C1=O)C(=O)NCC(=O)N[C@@H](CCCCN)C(=O)N[C@@H](Cc1ccccc1)C(=O)N[C@@H](CC(C)C)C(=O)N[C@@H](CCCCN)C(=O)N[C@@H](CCCCN)C(=O)N[C@@H](C)C(=O)N[C@@H](CCCCN)C(=O)N[C@@H](CCCCN)C(=O)N[C@@H](Cc1ccccc1)C(=O)NCC(=O)N[C@@H](CCCCN)C(=O)N[C@@H](C)C(=O)N[C@@H](Cc1ccccc1)C(=O)N[C@H](C(=O)N[C@@H](CCCCN)C(=O)N[C@H](C(=O)N[C@@H](CC(C)C)C(=O)N[C@@H](CCCCN)C(=O)N[C@@H](CCCCN)C(N)=O)[C@@H](C)CC)C(C)C` (stereo partly shown) [Vm‐MSI], the biofilm formation inhibited in [1] worked out at 60%; in [6] it was 60%; in data set [7] it was 50%; in [20], 80%. Besides, the “bacteria killed (mortality)” value in [2] is given as “over 80%”. Also, the “GM: Geometric mean of the MICs across the 29 bacterial strains” value in data set [3] is given as 2.60(11.03) µM. Further, the MIC in data set [4] was 4.42(18.75) µM; in [8], 2.21(9.38) µM; in data set [9], 2.21(9.38) µM; in data set [10], 4.42(18.75) µM; in data set [11], 2.21(9.38) µM; in data set [12], 2.21(9.38) µM. The MIC was 8.84(37.5) µM in data set [13]; 4.42(18.75) µM in data set [14]; 1.10(4.69) µM in [15]; 2.21(9.38) µM in data set [16] (E. coli CMCC44102, MH broth, 37 °C, 18 h, OD600); 1.10(4.69) µM in [17]; 4.42(18.75) µM in data set [19]. Further, the MIC is 2.21(9.38) µM in data set [22]; 4.42(18.75) µM in data set [23] (E. faecalis 2, MH broth, 37 °C, 18 h, OD600); 2.21(9.38) µM in [24] (MDR P. aeruginosa 5, MH broth, 37 °C, 18 h, OD600); 2.21(9.38) µM in [25]. The compound also gave a hemolysis in [5] of 10%. In addition, the “killing in the bottom layer of the biofilm” value in data set [18] was determined as 50%. For the same compound, the “killing in the middle layer of the biofilm” value in data set [18] came out at 60%. The “killing in the surface layer of the biofilm (dead cells)” value in data set [18] is 95%. The “killing at the bottom of the biofilm” value in data set [21] was “more than 75%”.

As for `O=C(O)c1cn(C2CC2)c2cc(N3CCNCC3)c(F)cc2c1=O` [ciprofloxacin], in [26], the “change of MIC over 20 generations” value was determined as 64 fold.

Turning to GIGKFLKKAKKFGKAFVKILKK-NH2 [MSI‐78], the MIC was 15.14(37.5) µM in data set [27]; 7.57(18.75) µM in data set [4]; 3.79(9.38) µM in data set [8]; 3.79(9.38) µM in [9]; 7.57(18.75) µM in data set [10]; 3.79(9.38) µM in data set [11]. In addition, the MIC was 7.57(18.75) µM in data set [12]; 7.57(18.75) µM in data set [13]; 7.57(18.75) µM in data set [14]; 3.79(9.38) µM in [15]; 15.14(37.5) µM in data set [28]; 30.28(75) µM in [29]. The MIC in data set [16] (CMCC44102, 18 h) was 15.14(37.5) µM; in data set [17], 3.79(9.38) µM; in [19], 7.57(18.75) µM; in data set [30], 15.14(37.5) µM; in data set [22], 3.79(9.38) µM; in data set [23] (2, 18 h), 15.14(37.5) µM. The MIC in data set [24] (MDR 5, 18 h) is given as 1.89(4.69) µM; in data set [25], 7.57(18.75) µM. For the same compound, the “bacteria killed (mortality)” value in [2] was found to be 58%. Further, in data set [3], the “GM: Geometric mean of the MICs across the 29 bacterial strains” value is 7.67(18.99) µM. Besides, the “killing in the middle layer of the biofilm” value in data set [18] amounted to 25%.

ILRWPWWPWRRK-NH2 [Omiganan]: the MIC was 2.34(1.32) µg mL^−1 in data set [31]; 75(42.15) µg mL^−1 in data set [32]; 18.75(10.54) µg mL^−1 in data set [33]; 18.75(10.54) µg mL^−1 in data set [34]; 9.38(5.27) µg mL^−1 in data set [35]; 18.75(10.54) µg mL^−1 in data set [28]. In addition, the MIC in data set [29] is reported as 75(42.15) µg mL^−1; in [36] it was 18.75(10.54) µg mL^−1; in [37], 37.5(21.08) µg mL^−1; in data set [30] it was >100(56.21) µg mL^−1; in data set [39], 37.5(21.08) µg mL^−1; in [40], 18.75(10.54) µg mL^−1. The “GM: geometric mean of MIC from tested bacterial strains” value in data set [38] is 36.00 µg/mL.
